Assay results: patent publication US9149465B2, “Isoxazolines as inhibitors of fatty acid amide hydrolase” (Infinity Pharmaceuticals, Inc., priority 2009, dated 2015)

Molecular target: T1, human FAAH (Homo sapiens, UniProt O00519)
T1 construct: host or cells: COS-7 cells, transient transfection; 13,000 g membrane fraction solubilised in 1% Triton X-100
T1 sequence (O00519 1-579): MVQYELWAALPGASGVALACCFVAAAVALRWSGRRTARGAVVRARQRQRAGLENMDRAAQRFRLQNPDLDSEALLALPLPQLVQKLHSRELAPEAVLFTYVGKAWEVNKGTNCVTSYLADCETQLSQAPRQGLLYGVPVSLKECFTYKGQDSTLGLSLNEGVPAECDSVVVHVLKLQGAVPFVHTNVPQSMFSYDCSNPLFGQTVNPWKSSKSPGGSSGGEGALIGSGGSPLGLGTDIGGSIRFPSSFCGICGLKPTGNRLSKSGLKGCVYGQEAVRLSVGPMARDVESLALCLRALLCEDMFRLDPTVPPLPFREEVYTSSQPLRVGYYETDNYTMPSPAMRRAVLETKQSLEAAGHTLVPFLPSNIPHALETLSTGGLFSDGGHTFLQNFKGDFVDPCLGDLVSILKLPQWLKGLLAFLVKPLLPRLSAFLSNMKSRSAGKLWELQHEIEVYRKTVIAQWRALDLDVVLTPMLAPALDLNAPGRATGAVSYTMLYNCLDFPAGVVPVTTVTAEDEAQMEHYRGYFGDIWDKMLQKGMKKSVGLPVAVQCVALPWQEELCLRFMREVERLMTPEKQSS
Assay: Inhibition of human FAAH (AMC arachidonoyl amide fluorescence assay)
Assay type: biochemical
Conditions: inhibitor preincubated 30 minutes at room temperature; 20 μM AMC arachidonoyl amide; 4 hours; read-out: Activity (Ki, inhibitors of human FAAH)
Method in brief: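 Solubilized membrane fraction from COS-7 cells transiently expressing human FAAH (0.05 mg/mL final) preincubated 30 min at room temperature with 3-fold serially diluted inhibitor, then reacted 4 h at room temperature with 20 μM AMC arachidonoyl amide. Stopped with α-ketoheterocycle; fluorescence read. Ki from single-site competitive fit, Km fixed at 12 μM.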

Row | Compound | Ki [nM]
1 | FC(F)(F)Oc1ccc(C2CC(Oc3cccc(-n4cnnc4)c3)=NO2)cc1 (racemic) [I-221] | ≥ 1000
2 | CC1(c2ccc(OC(F)(F)F)cc2)CC(Oc2cncc(-c3n[nH]c(=O)o3)c2)=NO1 (racemic) [I-231] | 100 to 1000
3 | CN(C)S(=O)(=O)c1cccc(OC2=NOC(C)(c3ccc(OC(F)(F)F)cc3)C2)c1 (racemic) [I-233] | ≥ 1000
4 | CC1(c2ccc(OC(F)(F)F)cc2)CC(Oc2ccc(S(C)(=O)=O)cc2)=NO1 (racemic) [I-234] | 100 to 1000
5 | CN(C)S(=O)(=O)c1ccc(OC2=NOC(C)(c3ccc(OC(F)(F)F)cc3)C2)cc1 (racemic) [I-235] | ≥ 1000
6 | OCCNC1=NOC(c2ccc(Oc3ccccc3)cc2)C1 (racemic) [I-243] | 100 to 1000
7 | CN(CC(=O)O)C1=NOC(c2ccc(Oc3ccccc3)cc2)C1 (racemic) [I-244] | 100 to 1000
8 | O[C@H](CNC1=NOC(c2ccc(Oc3ccccc3)cc2)C1)c1ccccc1 (mixture of isomers) [I-245] | ≥ 1000
9 | O[C@@H](CNC1=NOC(c2ccc(OC(F)(F)F)cc2)C1)c1ccccc1 (mixture of isomers) [I-246] | ≥ 1000
10 | FC(F)(F)Oc1ccc(C2CC(Sc3ccccc3)=NO2)cc1 (racemic) [I-248] | ≥ 1000
11 | [O-][S+](C1=NOC(c2ccc(OC(F)(F)F)cc2)C1)c1ccccc1 (racemic) [I-249] | ≥ 1000
12 | O=S(=O)(C1=NOC(c2ccc(OC(F)(F)F)cc2)C1)c1ccccc1 (racemic) [I-250] | ≥ 1000
13 | O=C(O)c1ccc(SC2=NOC(c3ccc(OC(F)(F)F)cc3)C2)cc1 (racemic) [I-251] | ≥ 1000
14 | CCN(C1=NOC(c2ccc(OC(F)(F)F)cc2)C1)c1ccccc1 (racemic) [I-253] | ≥ 1000
15 | CN(C1=NOC(c2ccc(OC(F)(F)F)cc2)C1)c1ccc(C(=O)O)cc1 (racemic) [I-255] | ≥ 1000
16 | c1ccc(Oc2ccc(C3CC(N4CCCC4)=NO3)cc2)cc1 (racemic) [I-256] | ≥ 1000
17 | Cn1nc(C(F)(F)F)cc1OC1=NOC(c2ccc(Oc3ccccc3)cc2)C1 (racemic) [I-257] | 100 to 1000
18 | BrC1=NOC(c2ccccc2)C1 (single isomer, unassigned) [I-1] | 100 to 1000

Row | Compound | Ki [nM]
19 | Clc1cccc(C2CC(Br)=NO2)c1 (single isomer, unassigned) [I-4] | 100 to 1000
20 | Clc1ccccc1C1CC(Br)=NO1 (single isomer, unassigned) [I-5] | 100 to 1000
21 | COc1cccc(C2CC(Br)=NO2)c1 (single isomer, unassigned) [I-7] | 100 to 1000
22 | COc1ccccc1C1CC(Br)=NO1 (single isomer, unassigned) [I-8] | ≥ 1000
23 | BrC1=NOC(c2ccc(Oc3ccccc3)cc2)C1 (single isomer, unassigned) [I-10] | ≤ 100
24 | BrC1=NOC(c2ccc(Oc3ncccn3)cc2)C1 (single isomer, unassigned) [I-13] | ≤ 100
25 | ClC1=NOC(c2ccc(Oc3ccccc3)cc2)C1 (single isomer, unassigned) [I-17] | ≤ 100
26 | Cc1ccc(Oc2ccc(C3CC(Br)=NO3)cc2)nn1 (single isomer, unassigned) [I-18] | 100 to 1000
27 | BrC1=NOC(c2ccc(-c3nnc(-c4ccccc4)o3)cc2)C1 (single isomer, unassigned) [I-19] | ≤ 100
28 | O=C(OCc1ccccc1)c1ccc(C2CC(Br)=NO2)cc1 (single isomer, unassigned) [I-21] | ≤ 100
29 | c1ccc(OC2=NOC(c3ccc(Oc4ccccc4)cc3)C2)cc1 (single isomer, unassigned) [I-23] | ≥ 1000
30 | Fc1ccc(OC2=NOC(c3ccc(Oc4ccccc4)cc3)C2)cc1 (single isomer, unassigned) [I-24] | ≥ 1000
31 | Fc1cccc(OC2=NOC(c3ccc(Oc4ccccc4)cc3)C2)c1 (single isomer, unassigned) [I-25] | 100 to 1000
32 | FC(F)(F)c1cccc(OC2=NOC(c3ccc(Oc4ccccc4)cc3)C2)c1 (single isomer, unassigned) [I-26] | ≥ 1000
33 | N#Cc1ccc(OC2=NOC(c3ccc(Oc4ccccc4)cc3)C2)cc1 (single isomer, unassigned) [I-27] | ≤ 100
34 | N#Cc1ccccc1OC1=NOC(c2ccc(Oc3ccccc3)cc2)C1 (single isomer, unassigned) [I-28] | ≥ 1000
35 | O=[N+]([O-])c1ccc(OC2=NOC(c3ccc(Oc4ccccc4)cc3)C2)cc1 (single isomer, unassigned) [I-29] | 100 to 1000

More lines, now with the values ahead:

Row | Ki [nM] | Compound
36 | ≤ 100 | Cn1cc(-c2ccc(OC3=NOC(c4ccc(OC(F)(F)F)cc4)C3)cn2)cn1 (racemic) [I-218]
37 | ≤ 100 | Cn1cc(-c2ccc(OC3=NOC(c4ccc(C(F)(F)F)cc4)C3)cn2)cn1 (racemic) [I-219]
38 | ≤ 100 | CS(=O)(=O)NC(=O)c1ccc(OC2=NOC(c3ccc(OC(F)(F)F)cc3)C2)cn1 (racemic) [I-220]
39 | ≤ 100 | Cc1nnc(-c2cccc(OC3=NOC(C)(c4ccc(OC(F)(F)F)cc4)C3)c2)o1 (racemic) [I-222]
40 | ≤ 100 | Cc1nnc(-c2cccc(OC3=NOC(c4ccc(OC(F)(F)F)cc4)C3)c2)o1 (racemic) [I-223]
41 | ≤ 100 | Cc1nnc(-c2cc(F)cc(OC3=NOC(c4ccc(OC(F)(F)F)cc4)C3)c2)o1 (racemic) [I-224]
42 | ≤ 100 | Fc1cc(OC2=NOC(c3ccc(OC(F)(F)F)cc3)C2)cc(-c2nnco2)c1 (racemic) [I-225]
43 | ≤ 100 | Fc1ccc(OC2=NOC(c3ccc(OC(F)(F)F)cc3)C2)cc1-c1nnco1 (racemic) [I-226]
44 | ≤ 100 | CC1(c2ccc(OC(F)(F)F)cc2)CC(Oc2ccc(F)c(-c3nnco3)c2)=NO1 (racemic) [I-227]
45 | ≤ 100 | CC1(c2ccc(OC(F)(F)F)cc2)CC(Oc2cncc(-c3nnco3)c2)=NO1 (racemic) [I-228]
46 | ≤ 100 | Cc1nnc(-c2cncc(OC3=NOC(C)(c4ccc(OC(F)(F)F)cc4)C3)c2)o1 (racemic) [I-229]
47 | ≤ 100 | FC(F)(F)Oc1ccc(C2CC(Oc3cncc(-c4nnco4)c3)=NO2)cc1 (racemic) [I-230]
48 | ≤ 100 | CC1(c2ccc(OC(F)(F)F)cc2)CC(Oc2cccc(-c3nnco3)c2)=NO1 (racemic) [I-232]
49 | ≤ 100 | FC(F)(F)Oc1ccc(C2CC(Oc3ccc(-c4cnn[nH]4)nc3)=NO2)cc1 (racemic) [I-236]
50 | ≤ 100 | CS(=O)(=O)c1ccc(OC2=NO[C@@H](c3ccc(Br)cc3)C2)cn1 (racemic) [I-237]
51 | ≤ 100 | CSc1ccc(OC2=NOC(c3ccc(C(F)(F)F)cc3)C2)cn1 (racemic) [I-238]
52 | ≤ 100 | Cn1cc(-c2ccc(OC3=NOC(C)(c4ccc(OC(F)(F)F)cc4)C3)cn2)cn1 (racemic) [I-240]
53 | ≤ 100 | Cn1nccc1-c1ccc(OC2=NOC(C)(c3ccc(OC(F)(F)F)cc3)C2)cn1 (racemic) [I-241]
54 | ≤ 100 | CC1(c2ccc(OC(F)(F)F)cc2)CC(Oc2ccc(-c3ccn[nH]3)nc2)=NO1 (racemic) [I-242]
55 | ≤ 100 | FC(F)(F)Oc1ccc(C2CC(Oc3cccc(-c4nnco4)c3)=NO2)cc1 (racemic) [I-258]
56 | ≤ 100 | Cc1nnc(-c2ccc(OC3=NOC(c4ccc(C(F)(F)F)cc4)C3)cn2)o1 (racemic) [I-259]
57 | ≤ 100 | CSc1ccc(OC2=NOC(C)(c3ccc(OC(F)(F)F)cc3)C2)cn1 (racemic) [I-261]
58 | ≤ 100 | BrC1=NOC(c2cccc(Oc3ccccc3)c2)C1 (single isomer, unassigned) [I-11]
59 | ≤ 100 | BrC1=NOC(c2ccc(Oc3cccnc3)cc2)C1 (single isomer, unassigned) [I-12]
